{"source": "ChEMBL document CHEMBL1132978", "about": "“Artificial neural network applied to prediction of fluorquinolone antibacterial activity by topological methods” (2000)"}
{"tested_on": "Escherichia coli", "experiment": "Minimum inhibitory concentration against Escherichia coli", "type": "functional", "units": {"MIC": "µg/mL"}}
{"smiles": "CCn1cc(C(=O)O)c(=O)c2cc(F)c(N3CC(C)NC(C)C3)cc21", "note": "(stereo unspecified)", "MIC": 0.4}
{"smiles": "CCNCC1CCN(c2c(F)cc3c(=O)c(C(=O)O)cn(C4CC4)c3c2OC)C1", "note": "(stereo unspecified)", "MIC": 0.1}
{"smiles": "CC1(CN)CCN(c2nc3c(cc2F)c(=O)c(C(=O)O)cn3C2CC2)C1", "note": "(stereo unspecified)", "MIC": 0.2}
{"smiles": "NC1CCN(c2c(F)cc3c(=O)c(C(=O)O)cn(C4CC4)c3c2F)C1", "note": "(stereo unspecified)", "MIC": 0.013}
{"smiles": "CNCC1CCN(c2cc3c(cc2F)c(=O)c(C(=O)O)cn3C(C)(C)C)C1", "note": "(stereo unspecified)", "MIC": 0.4}
{"smiles": "CCOc1c(N2CCNC(C)C2)c(F)cc2c(=O)c(C(=O)O)cn(C3CC3)c12", "note": "(stereo unspecified)", "MIC": 0.1}
{"smiles": "NC1CCN(c2nc3c(cc2F)c(=O)c(C(=O)O)cn3C2CC2)C1", "note": "(stereo unspecified)", "MIC": 0.013}
{"smiles": "CN1CCN(c2cc3c(cc2F)c(=O)c(C(=O)O)cn3C2CC2)CC1", "MIC": 0.05}
{"smiles": "CCNCC1CCN(c2c(F)cc3c(=O)c(C(=O)O)cn(C4CC4)c3c2OCC)CC1", "MIC": 0.8}
{"smiles": "COc1c(N2CCC(CN)CC2)c(F)cc2c(=O)c(C(=O)O)cn(C3CC3)c12", "MIC": 0.1}
{"smiles": "CCC1CN(c2cc3c(cc2F)c(=O)c(C(=O)O)cn3-c2ccc(F)cc2F)CCN1", "note": "(stereo unspecified)", "MIC": 0.4}
{"smiles": "COc1c(N2CCCC(N)C2)c(F)cc2c(=O)c(C(=O)O)cn(C3CC3)c12", "note": "(stereo unspecified)", "MIC": 0.1}
{"smiles": "CN(C)CC1CCN(c2cc3c(cc2F)c(=O)c(C(=O)O)cn3C2CC2)C1", "note": "(stereo unspecified)", "MIC": 0.2}
{"smiles": "CCN1CCN(c2cc3c(cc2F)c(=O)c(C(=O)O)cn3C(C)C)CC1", "MIC": 1.6}
{"smiles": "CNCC1CCN(c2cc3c(cc2F)c(=O)c(C(=O)O)cn3C2CCC2)C1", "note": "(stereo unspecified)", "MIC": 0.8}
{"smiles": "NCC1CCN(c2c(F)cc3c(=O)c(C(=O)O)cn(C4CC4)c3c2F)C1", "note": "(stereo unspecified)", "MIC": 0.025}
{"smiles": "CCn1cc(C(=O)O)c(=O)c2cc(F)c(N3CCC(CNC)C3)cc21", "note": "(stereo unspecified)", "MIC": 3.1}
{"smiles": "NCC1CCCN(c2c(F)cc3c(=O)c(C(=O)O)cn(C4CC4)c3c2N)C1", "note": "(stereo unspecified)", "MIC": 0.4}
{"smiles": "NCC1CCCN(c2cc3c(cc2F)c(=O)c(C(=O)O)cn3C2CC2)C1", "note": "(stereo unspecified)", "MIC": 0.4}
{"smiles": "CCOc1c(N2CCC(C)C2)c(F)cc2c(=O)c(C(=O)O)cn(C3CC3)c12", "note": "(stereo unspecified)", "MIC": 0.05}
{"smiles": "CCNCC1CCN(c2c(F)c(N)c3c(=O)c(C(=O)O)cn(C4CC4)c3c2F)C1", "note": "(stereo unspecified)", "MIC": 0.05}
{"smiles": "CC(C)n1cc(C(=O)O)c(=O)c2cc(F)c(N3CCNCC3)cc21", "MIC": 0.8}
{"smiles": "COc1c(N2CC(C)NC(C)C2)c(F)c(N)c2c(=O)c(C(=O)O)cn(C3CC3)c12", "note": "(stereo unspecified)", "MIC": 0.2}
{"smiles": "CC1CN(c2cc3c(cc2F)c(=O)c(C(=O)O)cn3-c2ccc(F)cc2F)CC(C)N1", "note": "(stereo unspecified)", "MIC": 0.4}
{"smiles": "CCn1cc(C(=O)O)c(=O)c2cc(F)c(N3CCC(N)C3)c(OC)c21", "note": "(stereo unspecified)", "MIC": 0.2}
{"smiles": "NCC1CCN(c2c(F)c(N)c3c(=O)c(C(=O)O)cn(C4CC4)c3c2F)C1", "note": "(stereo unspecified)", "MIC": 0.013}
{"smiles": "NC1CCN(c2nc3c(cc2F)c(=O)c(C(=O)O)cn3-c2ccc(F)cc2F)C1", "note": "(stereo unspecified) [TOSUFLOXACIN]", "MIC": 0.025}
{"smiles": "CC(C)NCC1CCN(c2cc3c(cc2F)c(=O)c(C(=O)O)cn3C2CC2)C1", "note": "(stereo unspecified)", "MIC": 0.4}
{"smiles": "CCNCC1CCN(c2c(F)cc3c(=O)c(C(=O)O)cn(CC)c3c2F)C1", "note": "(stereo unspecified) [MERAFLOXACIN]", "MIC": 0.1}
{"smiles": "CCn1cc(C(=O)O)c(=O)c2cc(F)c(N3CCNC(C)C3)cc21", "note": "(stereo unspecified)", "MIC": 0.2}
{"smiles": "NCC1CCN(c2cc3c(cc2F)c(=O)c(C(=O)O)cn3C2CC2)C1", "note": "(stereo unspecified)", "MIC": 0.05}
{"smiles": "CCNCC1CCN(c2nc3c(cc2F)c(=O)c(C(=O)O)cn3-c2ccc(F)cc2F)C1", "note": "(stereo unspecified)", "MIC": 0.2}
{"smiles": "CNCC1CCN(c2c(F)c(N)c3c(=O)c(C(=O)O)cn(C4CC4)c3c2F)C1", "note": "(stereo unspecified)", "MIC": 0.025}
{"smiles": "NCC1CCCN(c2c(F)cc3c(=O)c(C(=O)O)cn(C4CC4)c3c2F)C1", "note": "(stereo unspecified)", "MIC": 0.05}
{"smiles": "CNCC1CCN(c2nc3c(cc2F)c(=O)c(C(=O)O)cn3C2CC2)C1", "note": "(stereo unspecified)", "MIC": 0.1}
{"smiles": "CCN1CCN(c2cc3c(cc2F)c(=O)c(C(=O)O)cn3-c2ccc(F)cc2F)CC1", "MIC": 0.4}
{"smiles": "CC(C)CN1CCN(c2cc3c(cc2F)c(=O)c(C(=O)O)cn3C2CC2)CC1", "MIC": 0.2}
{"smiles": "CC1CN(c2cc3c(cc2F)c(=O)c(C(=O)O)cn3C2CCC2)CCN1", "note": "(stereo unspecified)", "MIC": 0.4}
{"smiles": "COc1c(N2CCCC(CN)C2)c(F)c(N)c2c(=O)c(C(=O)O)cn(C3CC3)c12", "note": "(stereo unspecified)", "MIC": 0.1}
{"smiles": "CNCC1CCN(c2cc3c(cc2F)c(=O)c(C(=O)O)cn3C(C)C)C1", "note": "(stereo unspecified)", "MIC": 3.1}
{"smiles": "CCNCC1CCN(c2cc3c(c(N)c2F)c(=O)c(C(=O)O)cn3C2CC2)C1", "note": "(stereo unspecified)", "MIC": 0.1}
{"smiles": "COc1c(N2CCC(N)C2)c(F)cc2c(=O)c(C(=O)O)cn(C3CC3)c12", "note": "(stereo unspecified)", "MIC": 0.025}
{"smiles": "CCNCC1CCN(c2c(F)cc3c(=O)c(C(=O)O)cn(C4CC4)c3c2C(F)(F)F)C1", "note": "(stereo unspecified)", "MIC": 0.4}
{"smiles": "NC1CCN(c2cc3c(cc2F)c(=O)c(C(=O)O)cn3C2CCC2)C1", "note": "(stereo unspecified)", "MIC": 0.4}
{"smiles": "CCCCN1CCN(c2cc3c(cc2F)c(=O)c(C(=O)O)cn3-c2ccc(F)cc2F)CC1", "MIC": 0.8}
{"smiles": "COc1c(N2CCNC(C)C2)c(F)cc2c(=O)c(C(=O)O)cn(C3CC3)c12", "note": "(stereo unspecified) [GATIFLOXACIN]", "MIC": 0.05}
{"smiles": "CCCCN1CCN(c2cc3c(cc2F)c(=O)c(C(=O)O)cn3C2CC2)CC1", "MIC": 0.1}
{"smiles": "CCC1CN(c2cc3c(cc2F)c(=O)c(C(=O)O)cn3C2CC2)CCN1", "note": "(stereo unspecified)", "MIC": 0.1}
{"smiles": "CCNC(C)C1CCN(c2cc3c(c(N)c2F)c(=O)c(C(=O)O)cn3C2CC2)C1", "note": "(stereo unspecified)", "MIC": 0.1}
{"smiles": "CC1CN(c2cc3c(cc2F)c(=O)c(C(=O)O)cn3C2CC2)CC(C)N1", "note": "(stereo unspecified)", "MIC": 0.05}
{"smiles": "NCC1CCCN(c2c(F)cc3c(=O)c(C(=O)O)cn(C4CC4)c3c2Cl)C1", "note": "(stereo unspecified)", "MIC": 0.1}
